Measured values as given in PMC7170889, “Synthesis and evaluation of designed PKC modulators for enhanced cancer immunotherapy” (Nature Communications, 2020).

Columns and labels:
[1] = test system: CD22 surface expression in NALM6 cells; assay: CD22 surface expression in NALM6 cells (flow cytometry); type: cell-based, human; settings: NALM6 cells at 1 nM relative to DMSO control, 24 h incubation, washout, 24 h sub-culture, n = 3; for fold induction at 0.001 µM: Homo sapiens, NALM-6, 24 h, read-out: Fold increase CD22 expression
Experimental: CD22 Surface Expression Protocol – NALM6 Cells […]
unless otherwise noted below) at 37 ° C in an incubator (5% CO2). Cell cultures were maintained […]
Cell suspension from a confluent T75 flask (Fisher) was transferred to a 15 mL falcon tube and centrifuged at 1100 rpm for 7 minutes. The supernatant was aspirated, and the cell pellet was […]
Cells were counted using a Countess II Automated Cell
199 µL of this stock was added to 24 wells (enough for triplicate measurements for 8 different experimental conditions) in a 96-well plate. Dosing was […]
each experiment. 1 µL of DMSO or the appropriate stock solution of compound in DMSO was added to each well. Cells were incubated for 24 hours, at which point the cell suspensions were transferred to 1.5 mL Eppendorf tubes and diluted with 1.0 mL of PBS (Hyclone, without Ca2+ or Mg2+). Samples were centrifuged at 2000 rpm for 5 min at RT. The supernatant was aspirated, […]
Cells were sub-cultured between 2 […]
surface expression was assayed by flow cytometry.
Cells from one well were counted using a Countess II Automated Cell Counter (Fisher). ~200,000 – 300,000 cells from each well were added to 1.5 mL Eppendorf tubes containing PBS (final volume ~1.2 mL). The cell suspensions were centrifuged at 1500 rpm for 7 minutes at 4 °C. The supernatant was aspirated, and the cell pellet was resuspended in 99 µL of pre-chilled FACS […]
buffer (0.5% w/v BSA in PBS). […]
minutes. Samples were then diluted with an additional 1.0 mL of FACS buffer and centrifuged at 1500 rpm for 7 minutes at 4 °C. The supernatant was aspirated, the cell pellets were resuspended in 200 µL FACS buffer, and the resulting suspensions were transferred to FACS tubes (Fisher, […]
Cells were stained with DAPI and CD22 surface expression was analyzed using the FACScan Analyzer at the Stanford Shared FACS Facility. Data analysis was performed using FlowJo and Microsoft Excel.

[2] = molecular target: T1, PKCδ-GFP fusion protein (Homo sapiens, UniProt Q05655); assay: PKCδ-GFP translocation assay in living CHO-k1 cells (confocal microscopy); type: cell-based, Chinese hamster; settings: for Emax at 0.2 µM: CHO-K1, 200 nM compound; for Emax at 0.2 µM / Emax at 1 µM: read-out: % Translocation (maximum translocation of PKCδ-GFP to the plasma membrane); for minimum effective concentration required to induce translocation of PKC-GFP to the membrane: tested at 200 and 1000 nM; for PKC activation dynamics (shape of translocation curve): Fig. 5c, d; for Emax at 1 µM: CHO-K1, 1000 nM compound
T1 construct: expressed in transfected cells; host or cells: CHO-k1 (Chinese hamster ovary, ATCC)
T1 sequence (Q05655 whole entry, the tested form may be a part): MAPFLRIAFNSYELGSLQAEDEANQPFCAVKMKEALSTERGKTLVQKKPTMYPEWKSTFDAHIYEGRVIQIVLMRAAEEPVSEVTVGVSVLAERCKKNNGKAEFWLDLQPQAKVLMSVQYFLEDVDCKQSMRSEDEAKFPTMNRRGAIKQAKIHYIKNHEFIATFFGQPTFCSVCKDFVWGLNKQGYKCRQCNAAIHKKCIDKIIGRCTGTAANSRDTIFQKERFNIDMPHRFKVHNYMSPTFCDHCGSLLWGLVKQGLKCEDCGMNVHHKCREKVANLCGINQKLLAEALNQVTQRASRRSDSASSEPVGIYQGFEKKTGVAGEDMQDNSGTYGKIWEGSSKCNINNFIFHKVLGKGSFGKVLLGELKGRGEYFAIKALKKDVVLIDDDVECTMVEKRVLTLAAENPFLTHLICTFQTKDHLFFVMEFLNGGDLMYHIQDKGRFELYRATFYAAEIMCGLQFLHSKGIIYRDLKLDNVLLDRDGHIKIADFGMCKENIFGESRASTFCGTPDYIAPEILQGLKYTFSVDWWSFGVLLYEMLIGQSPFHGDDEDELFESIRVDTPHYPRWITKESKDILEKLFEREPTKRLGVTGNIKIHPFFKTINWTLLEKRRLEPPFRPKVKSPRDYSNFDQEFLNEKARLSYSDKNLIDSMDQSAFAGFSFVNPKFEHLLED
Experimental: With a panel of compounds bearing diverse functionality at C13, we began to explore how these modifications affect PKC binding and biological function. Because an obvious prerequisite for PKC pathway involvement is binding to PKC, compounds were initially evaluated for PKC affinity in a cell-free competitive binding assay with tritiated phorbol dibutyrate ([^3H]-PDBu). Assays were performed with representative members of both the conventional (PKCα) and novel (PKCδ) PKC families. Subsequently, compounds were assayed for PKC isoform translocation in real time in living cells using an optical assay. Translocation to the plasma membrane is the hallmark of PKC activation[18],[57],[60] and therefore monitoring the subcellular localization of a PKCδ-GFP fusion protein via confocal microscopy offers a convenient method for determining whether a compound enters a cell and engages its PKC isoform target. Finally and of clinical significance, we also determined the effect of compounds on CD22 surface expression in vitro in NALM6 cells, an ALL cell line previously studied in connection with CD22-targeted CAR T cell therapy, and two additional lymphoma cell lines[11],[31],[65].
Scale bar represents 25 μm. Experiments performed in n = 3 biological replicates. b–d Cytosolic fluorescence normalized to t = 0 (time immediately prior to addition of compound to media) and plotted against time. Error bars excluded for clarity (data presented as the mean of n = 3 biological replicates). Individual curves with error bars included in Supplementary Information.
PKCδ-GFP Translocation Assay Protocol
Chinese hamster ovary factor K1 (CHO-k1, ATCC) cells were cultured in F-12 Kaighn’s media (Hyclone, 10% fetal bovine serum, 1% penicillin/streptomycin added, reffered to as F-12 +/+ below) at 37 ° C in an incubator (5% CO2). Cell cultures were maintained by splitting cells 1:3 when they reached ~75-100% confluence (every 2-3 days) as follows:
(Gibco) was used to remove the cells from the culture flask (T75, Falcon). 1 mL of the cell suspension was then added to 9 mL of fresh F-12 +/+ and the sample was sub-cultured until reaching confluence (~2-3 days).
Cells were counted using a Countess II Automated Cell Counter (Fisher). The cell suspension was diluted to 240,000 cells/mL with fresh F-12 +/+ and 2.5 mL of this diluted stock was added to one well in a 6-well plate. The cells were then cultured for 24 hours.
Cells were transfected with Lipofectamine 2000 reagent (Invitrogen) or DA 13:11 at a 10:1 charge […]
F-12 +/+ was aspirated and cells were washed with F-12 -/-. 2 mL of fresh F-12 -/- was then added to each well, taking care not to disturb adherent cells. For each well of CHO-k1 cells, 12.5 µL Lipofectamine 2000 reagent (Invitrogen) was added to 250 µL Opti-MEM reduced serum media (Invitrogen) in a polypropylene tube and incubated for 20 minutes at RT. Meanwhile, for each well, 4 µg of PKCδ-GFP pDNA and 250 µL Opti-MEM reduced serum media was added to a separate polypropylene tube. 250 µL of the Lipofectamine 2000 suspension was added to the DNA suspension and the solution incubated for 30 minutes at RT. 500 µL of the Lipofectamine/DNA suspension was added to the respective wells of the 6-well plate. The cells were then incubated at 37 ° C (5% CO2) for ~24 hrs.
F-12 +/+ was aspirated and cells were washed with F-12 -/-. 2.4 mL of fresh F-12 -/- was then added to each well, taking care not to disturb adherent cells. A 4 µg aliquot of PKCδ-GFP pDNA was added to PBS (pH 5.5, final volume 100 µL). 5.6 µL of DA 13:11 (2 mM stock in DMSO) was then added to the DNA solution, and the mixture was gently mixed (by flicking) for 20 seconds, at which point it was added directly to the respective wells of the 6-well plate.

SMILES	fold induction at 0.001 µM [1]	cytosolic PKC translocated to the plasma membrane ([2]; 200 nM, at 20 min)	Emax at 0.2 µM ([2]; CHO-k1 cells, n = 3)	minimum effective concentration required to induce translocation of PKC-GFP to the membrane ([2]; CHO-k1 cells)	Fold increase CD22 expression [1]	activity in the PKC translocation assay at 200 nM ([2]; 200 nM)	time required for translocation ([2]; 200 nM)	PKC activation dynamics (shape of translocation curve) [2]	Emax at 1 µM ([2]; CHO-k1 cells, n = 3)	% Translocation (maximum translocation of PKCδ-GFP to the plasma membrane) ([2]; 200 nM compound, CHO-k1 cells, n = 3)
CCCCCC#CC(=O)O[C@H]1/C(=C/C(=O)OC)C[C@H]2C[C@H]([C@@H](C)O)OC(=O)C[C@H](O)C[C@@H]3C[C@H](OC(C)=O)C(C)(C)[C@](O)(C[C@@H]4C[C@H](O)C[C@H](/C=C/C(C)(C)[C@]1(O)O2)O4)O3 [SUW204]	0.98	~ 25%	25%	200 nM						
CCC/C=C/C=C/C(=O)O[C@H]1/C(=C/C(=O)OC)C[C@H]2C[C@H]([C@@H](C)O)OC(=O)C[C@H](O)C[C@@H]3C[C@H](OC(C)=O)C(C)(C)[C@](O)(C[C@@H]4C[C@@H](OC(C)=O)C[C@H](/C=C/C(C)(C)[C@]1(O)O2)O4)O3 [SUW207]			60%	200 nM	1.33 fold					
CCCC=CC=CC(=O)OC1C(=CC(=O)OC)CC2CC(C(C)O)OC(=O)CC(O)CC3CC(OC(C)=O)C(C)(C)C(O)(CC4CC(OC(=O)Nc5ccccc5)CC(C=CC(C)(C)C1(O)O2)O4)O3 (stereo not shown) [SUW208]	1.68		75%	200 nM		effectively translocated PKC to the plasma membrane	~ 15 min	delayed activation patterns		
CCCC=CC=CC(=O)OC1C(=CC(=O)OC)CC2CC(C(C)O)OC(=O)CC(O)CC3CC(OC(C)=O)C(C)(C)C(O)(CC4CC(OC(=O)CC56CC7CC(CC(C7)C5)C6)CC(C=CC(C)(C)C1(O)O2)O4)O3 (stereo not shown) [SUW209]	1.45			1000 nM		inactive			60%	
CCCC=CC=CC(=O)OC1C(=CC(=O)OC)CC2CC(C(C)O)OC(=O)CC(O)CC3CC(OC(C)=O)C(C)(C)C(O)(CC4CC(OC(=O)CCc5c[nH]c6ccccc56)CC(C=CC(C)(C)C1(O)O2)O4)O3 (stereo not shown) [SUW210]	1.49			1000 nM		inactive			75%	
CCCC=CC=CC(=O)OC1C(=CC(=O)OC)CC2CC(C(C)O)OC(=O)CC(O)CC3CC(OC(C)=O)C(C)(C)C(O)(CC4CC(=CC(=O)OCC)CC(C=CC(C)(C)C1(O)O2)O4)O3 (stereo not shown) [SUW217]	1.97		75%	200 nM						
CCCC=CC=CC(=O)OC1C(=CC(=O)OC)CC2CC(C(C)O)OC(=O)CC(O)CC3CC(OC(C)=O)C(C)(C)C(O)(CC4CC(=CC(=O)OCC)CC(C=CC(C)(C)C1(O)O2)O4)O3 (stereo not shown) [SUW218]				200 nM	1.92 fold			more sustained linear activation dynamics		55%
